Reference: US6335366B2, “Naphthyloxy acetic acid derivatives and a pharmaceutical composition comprising them as an active ingredient” (Ono Pharmaceutical Co., Ltd., priority 1996, dated 2002)

How the values were obtained:
[1] = target: T1, prostanoide receptor subtype (mouse EP3α) (Mus musculus, UniProt P30557); assay: Binding assay using expression cell of prostanoide receptor subtype ([3H]-PGE2 competition, CHO cell membrane fraction); conditions: [3H]-PGE2 2.5 nM; membrane fraction of CHO cells expressing mouse EP3α; Ki = IC50/(1+([C]/Kd)); read-out: dissociation constant Ki
T1 construct: expressed in transfected cells; host or cells: CHO cells (membrane fraction)
T1 sequence (P30557 1-365): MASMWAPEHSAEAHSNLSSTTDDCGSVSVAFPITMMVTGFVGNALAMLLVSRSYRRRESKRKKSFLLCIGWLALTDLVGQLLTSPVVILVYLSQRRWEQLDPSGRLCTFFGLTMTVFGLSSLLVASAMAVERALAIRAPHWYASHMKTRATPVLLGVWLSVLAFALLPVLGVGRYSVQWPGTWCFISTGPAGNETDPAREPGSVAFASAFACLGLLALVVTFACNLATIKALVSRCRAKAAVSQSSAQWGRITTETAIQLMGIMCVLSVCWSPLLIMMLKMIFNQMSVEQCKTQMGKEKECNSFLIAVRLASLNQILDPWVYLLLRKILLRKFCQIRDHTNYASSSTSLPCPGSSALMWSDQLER
Experimental: For example, in standard laboratory test, the effects of the compounds of the present invention were confirmed by inhibitory effect on binding PGE2 using expression cell of receptor.
(I) Binding Assay using Expression Cell of Prostanoide Receptor Subtype
The preparation of membrane fraction was carried out according to the method of Sugimoto et al (J. Biol. Chem. 267, 6463-6466 (1992)), using expression CHO cell of prostanoide receptor subtype (mouse EP3α).
The standard assay mixture contained membrane fraction (0.5 mg/ml), [^3H]-PGE2 in a final volume of […] was incubated for 1 hour at room temperature. The reaction was terminated by addition of 3 ml of ice-cold buffer. The mixture was rapidly filtered through a glass filter (GF/B). The radioactivity associated with the filter was measured by liquid scintillation counting.
Kd and Bmax values were determined from Scatchard plots (Ann. N.Y. Acad. Sci., 51, 660 (1949)). Non-specific binding was calculated as the bond in the presence of an excess ([…]) of unlabeled PGE2. In the experiment for competition of specific [^3H]-PGE2 binding by the compounds of the present invention, [^3H]-PGE2 was added at a concentration of 2.5 nM and the compounds of the present invention were at a concentration of 1 mM. Buffer: 10 mM potassium phosphate (pH6.0), 1 mM EDTA, 10 mM MgCl2, 0.1 M NaCl.
The dissociation constant Ki (μM) of each compound was calculated by the following equation.

For `O=C(O)COc1cccc2c(CCCSCC(O)c3ccccc3)cccc12` (stereo not shown) [3(8), 2-{5-[3-(2RS-Hydroxy-2-phenylethylthio)propyl]-1-naphthyloxy}acetic Acid], the Ki [1] was 2000 nM.
`O=C(O)COc1cccc2c(CCC[S+]([O-])/C=C/c3ccccc3)cccc12` (stereo not shown) [compound 5] gave a Ki [1] of 80 nM.
In the case of `O=C(O)COc1cccc2c(CCCS(=O)(=O)/C=C/c3ccccc3)cccc12` [5(1), 2-[5-(3-Styrylsulfonylpropyl)-1-naphthyloxy]acetic Acid], the Ki [1] is reported as 8.6 nM.
`O=C(O)COc1cccc2c(CCS(=O)(=O)CC(O)COc3ccccc3)cccc12` (stereo not shown) [3(2), 2-{5-[2-(2RS-Hydroxy-3-phenoxypropylsulfonyl)ethyl]-1-naphthyloxy}acetic Acid] showed a Ki [1] of 9.9 nM.
Work on `O=C(O)COc1cccc2c(CS(=O)(=O)CC(O)COc3ccccc3)cccc12` (stereo not shown) [3(7), 2-[5-(2RS-Hydroxy-3-phenoxypropylsulfonyl)methyl-1-naphthyloxy]acetic Acid] yielded a melting point of 186 to 190 °C.
In the case of `O=C(O)COc1cccc2c(CSCC(O)COc3ccccc3)cccc12` (stereo not shown) [3(5), 2-[5-(2RS-Hydroxy-3-phenoxypropylthio)methyl-1-naphthyloxy]acetic Acid], the melting point is reported as 105 to 107 °C.
Compound `O=C(O)COc1cccc2c(CCSCC(O)COc3ccccc3)cccc12` (stereo not drawn) [3(4), 2-{5-[2-(2S-Hydroxy-3-phenoxypropylthio)ethyl]-1-naphthyloxy}acetic Acid] has a melting point of 114 to 115.5 °C.
`O=C(O)COc1cccc2c(C[S+]([O-])CC(O)COc3ccccc3)cccc12` (stereo not shown) [3(6), 2-[5-(2RS-Hydroxy-3-phenoxypropylsulfinyl)methyl-1-naphthyloxy]acetic Acid] showed a Ki [1] of 150 nM.
With `O=C(O)COc1cccc2c(CCSCC(O)COc3ccccc3)cccc12` (stereo not shown) [compound 3] the Ki [1] was 48 nM.
Work on `O=C(O)COc1cccc2c(CCSC[C@H](O)COc3ccccc3)cccc12` [3(3), 2-{5-[2-(2R-Hydroxy-3-phenoxypropylthio)ethyl]-1-naphthyloxy}acetic Acid] yielded a melting point of 114 to 115.5 °C.
